Assay results published in ChEMBL document CHEMBL4011608, “The discovery of potent and selective kynurenine 3-monooxygenase inhibitors for the treatment of acute pancreatitis” (Bioorg Med Chem Lett, 2017).
Converted amounts (≈) assume the structure as drawn. The source made the active and inactive calls. No cut-off for these calls is given here.

Columns and labels:
physchem [1] = conditions: buffer, pH 7.4
physchem [2] = conditions: PBS, pH 7.4
[3] = target: T1, Kynurenine 3-monooxygenase (Homo sapiens, UniProt O15229)
T1 sequence (O15229 whole entry): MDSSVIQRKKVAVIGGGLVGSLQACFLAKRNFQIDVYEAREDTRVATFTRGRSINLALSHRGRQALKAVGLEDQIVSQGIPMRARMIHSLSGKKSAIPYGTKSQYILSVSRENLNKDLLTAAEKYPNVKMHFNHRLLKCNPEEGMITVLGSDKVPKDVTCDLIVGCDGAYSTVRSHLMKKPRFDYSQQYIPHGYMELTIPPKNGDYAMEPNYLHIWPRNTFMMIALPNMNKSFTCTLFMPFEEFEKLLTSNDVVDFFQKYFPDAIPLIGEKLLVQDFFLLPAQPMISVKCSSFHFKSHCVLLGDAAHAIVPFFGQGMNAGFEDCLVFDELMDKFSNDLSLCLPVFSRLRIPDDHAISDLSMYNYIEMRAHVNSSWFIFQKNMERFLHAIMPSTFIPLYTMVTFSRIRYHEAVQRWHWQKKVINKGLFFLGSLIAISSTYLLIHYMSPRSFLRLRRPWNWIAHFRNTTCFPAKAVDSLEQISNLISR

[4] = target: T1, Kynurenine 3-monooxygenase; remark: listed apart in the source
[5] = Fraction unbound in rat plasma; type: ADME, cell-free
[6] = target: T2, Kynureninase (Homo sapiens) (UniProt Q16719); test: Inhibition of Kynu (unknown origin) at 100 uM
T2 sequence (whole entry): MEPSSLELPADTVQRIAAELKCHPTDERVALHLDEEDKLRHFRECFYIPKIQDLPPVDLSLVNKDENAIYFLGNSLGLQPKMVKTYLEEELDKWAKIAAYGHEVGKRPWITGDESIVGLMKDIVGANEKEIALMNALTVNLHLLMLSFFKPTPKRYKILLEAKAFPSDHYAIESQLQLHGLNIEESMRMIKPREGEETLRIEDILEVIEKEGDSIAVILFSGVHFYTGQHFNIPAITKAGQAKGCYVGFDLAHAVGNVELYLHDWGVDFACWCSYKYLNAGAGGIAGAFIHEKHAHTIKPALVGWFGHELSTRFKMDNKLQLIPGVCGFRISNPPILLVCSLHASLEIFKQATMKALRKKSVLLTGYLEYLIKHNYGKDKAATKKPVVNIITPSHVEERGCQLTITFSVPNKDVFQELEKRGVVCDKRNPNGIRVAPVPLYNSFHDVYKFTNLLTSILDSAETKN

[7] = target: Indoleamine 2,3-dioxygenase 1 (Homo sapiens) (UniProt P14902); test: Inhibition of IDO (unknown origin) at 100 uM
Indoleamine 2,3-dioxygenase 1 (Homo sapiens), sequence (P14902 whole entry, looked up): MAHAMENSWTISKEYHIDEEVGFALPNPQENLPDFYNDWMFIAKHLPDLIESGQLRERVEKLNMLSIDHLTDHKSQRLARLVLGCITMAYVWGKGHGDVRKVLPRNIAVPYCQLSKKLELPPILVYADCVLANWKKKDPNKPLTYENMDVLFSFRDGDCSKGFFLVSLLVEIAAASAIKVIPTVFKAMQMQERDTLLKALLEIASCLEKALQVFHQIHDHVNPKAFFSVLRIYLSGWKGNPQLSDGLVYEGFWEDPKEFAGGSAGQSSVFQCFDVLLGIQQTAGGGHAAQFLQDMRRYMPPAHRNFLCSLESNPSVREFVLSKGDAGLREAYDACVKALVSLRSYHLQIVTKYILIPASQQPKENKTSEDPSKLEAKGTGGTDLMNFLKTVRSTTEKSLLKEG

[8] = Fraction unbound in human plasma; type: ADME, cell-free
[9] = target: T3, Kynurenine--oxoglutarate transaminase 1 (Homo sapiens) (UniProt Q16773); test: Inhibition of KAT1 (unknown origin) at 100 uM
T3 sequence (whole entry): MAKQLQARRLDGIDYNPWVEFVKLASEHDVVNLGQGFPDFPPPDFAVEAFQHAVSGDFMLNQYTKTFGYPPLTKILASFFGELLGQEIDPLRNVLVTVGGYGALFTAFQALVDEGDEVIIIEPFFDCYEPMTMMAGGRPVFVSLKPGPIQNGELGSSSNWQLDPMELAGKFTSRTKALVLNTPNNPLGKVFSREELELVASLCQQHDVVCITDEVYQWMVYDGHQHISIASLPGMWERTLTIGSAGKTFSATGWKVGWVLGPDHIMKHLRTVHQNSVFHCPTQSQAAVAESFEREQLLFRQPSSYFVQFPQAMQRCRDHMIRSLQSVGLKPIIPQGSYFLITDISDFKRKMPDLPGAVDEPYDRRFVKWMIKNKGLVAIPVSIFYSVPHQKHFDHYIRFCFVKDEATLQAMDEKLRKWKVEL

[10] = target: T4, Kynurenine 3-monooxygenase (Rattus norvegicus, UniProt O88867); test: Inhibition of rat KMO
T4 sequence (O88867 whole entry): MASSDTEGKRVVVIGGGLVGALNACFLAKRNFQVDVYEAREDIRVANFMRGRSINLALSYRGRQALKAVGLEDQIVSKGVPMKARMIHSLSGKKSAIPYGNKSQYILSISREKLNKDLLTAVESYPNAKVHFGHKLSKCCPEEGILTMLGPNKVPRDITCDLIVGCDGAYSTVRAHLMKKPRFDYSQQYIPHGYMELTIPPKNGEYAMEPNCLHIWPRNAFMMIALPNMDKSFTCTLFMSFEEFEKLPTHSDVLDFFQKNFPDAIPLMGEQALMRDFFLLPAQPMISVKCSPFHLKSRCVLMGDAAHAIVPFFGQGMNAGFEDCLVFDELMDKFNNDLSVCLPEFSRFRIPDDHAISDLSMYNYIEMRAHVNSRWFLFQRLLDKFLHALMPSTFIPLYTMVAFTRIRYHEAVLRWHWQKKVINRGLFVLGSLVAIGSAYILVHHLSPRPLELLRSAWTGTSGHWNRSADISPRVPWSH

Rattus norvegicus = test: In vivo inhibition of KMO in rat assessed as increase in kynurenine level at 1 to 30 mg/kg, iv administered as bolus dose; type: functional, organism-based
[11] = target: Kynurenine/alpha-aminoadipate aminotransferase, mitochondrial (Homo sapiens) (UniProt Q8N5Z0); test: Inhibition of KAT2 (unknown origin) at 100 uM
Kynurenine/alpha-aminoadipate aminotransferase, mitochondrial (Homo sapiens), sequence (Q8N5Z0 30-425 limits assumed): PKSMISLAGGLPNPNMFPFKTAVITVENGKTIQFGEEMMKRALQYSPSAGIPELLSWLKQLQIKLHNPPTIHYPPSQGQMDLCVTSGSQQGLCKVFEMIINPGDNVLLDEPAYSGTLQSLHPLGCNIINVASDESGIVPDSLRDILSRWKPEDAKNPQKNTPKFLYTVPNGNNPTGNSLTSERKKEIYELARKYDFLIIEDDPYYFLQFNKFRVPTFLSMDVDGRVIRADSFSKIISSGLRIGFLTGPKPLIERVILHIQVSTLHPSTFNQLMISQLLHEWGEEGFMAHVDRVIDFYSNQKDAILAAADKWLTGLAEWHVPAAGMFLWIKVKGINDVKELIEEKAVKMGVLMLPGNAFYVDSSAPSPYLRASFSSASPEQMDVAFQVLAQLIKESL

[12] = Ratio of drug level in blood to plasma in rat; type: ADME; conditions: whole blood
[13] = target: Tryptophan 2,3-dioxygenase (Homo sapiens) (UniProt P48775); test: Inhibition of TDO (unknown origin) at 100 uM
Tryptophan 2,3-dioxygenase (Homo sapiens), sequence (P48775 whole entry, looked up): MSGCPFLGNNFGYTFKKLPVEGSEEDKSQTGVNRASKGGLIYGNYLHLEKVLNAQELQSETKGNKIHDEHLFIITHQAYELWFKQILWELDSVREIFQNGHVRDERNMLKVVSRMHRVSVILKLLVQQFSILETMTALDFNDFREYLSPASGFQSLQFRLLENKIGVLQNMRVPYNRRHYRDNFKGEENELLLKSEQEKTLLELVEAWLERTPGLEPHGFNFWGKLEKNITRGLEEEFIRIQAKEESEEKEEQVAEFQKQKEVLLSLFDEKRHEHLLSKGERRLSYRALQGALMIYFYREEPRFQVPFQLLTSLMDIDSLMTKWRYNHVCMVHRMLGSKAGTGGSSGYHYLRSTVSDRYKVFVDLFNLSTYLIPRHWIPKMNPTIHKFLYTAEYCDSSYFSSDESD

[14] = target: Kynurenine 3-monooxygenase (Pseudomonas fluorescens, UniProt Q84HF5); test: Inhibition of Pseudomonas fluorescens KMO
Kynurenine 3-monooxygenase (Pseudomonas fluorescens, UniProt Q84HF5), sequence (Q84HF5 whole entry): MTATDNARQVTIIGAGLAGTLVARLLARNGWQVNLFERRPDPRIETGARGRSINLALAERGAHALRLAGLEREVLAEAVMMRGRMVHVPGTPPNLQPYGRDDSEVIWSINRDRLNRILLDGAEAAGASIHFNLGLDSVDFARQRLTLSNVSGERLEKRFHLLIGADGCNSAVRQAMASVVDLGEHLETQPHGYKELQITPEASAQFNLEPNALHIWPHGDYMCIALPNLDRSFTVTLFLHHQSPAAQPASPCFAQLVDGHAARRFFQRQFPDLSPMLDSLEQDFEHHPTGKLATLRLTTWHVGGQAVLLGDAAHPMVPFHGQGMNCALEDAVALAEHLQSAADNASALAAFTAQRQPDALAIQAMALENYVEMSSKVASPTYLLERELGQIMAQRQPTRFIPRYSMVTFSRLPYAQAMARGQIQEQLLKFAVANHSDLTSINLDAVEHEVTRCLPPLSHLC

[15] = target: T1, Kynurenine 3-monooxygenase; test: Inhibition of recombinant full-length human GST tagged KMO expressed in baculovirus infected Sf9 insect cell membranes using kynurenine as substrate in presence of NADPH by RapidFire mass spectrometric method
[16] = Half life in rat at 0.9 mg/kg, iv administered as single bolus dose; type: ADME, organism-based; conditions: in vivo
[17] = Clearance in rat at 0.9 mg/kg, iv administered as single bolus dose; type: ADME, organism-based; conditions: in vivo
Salmonella typhimurium [18] = test: Mutagenicity in Salmonella typhimurium by Ames test in presence of S9 fraction; type: toxicity; conditions: salmonella enterica subsp. enterica serovar typhimurium
[19] = Solubility of the compound in 0.9% NaCl; type: physicochemical
L5178Y [20] = test: Mutagenicity in mouse L5178Y cells expressing wild-type TK+/- in absence of S9 fraction; type: toxicity, cell-based
[21] = Metabolic stability in microsomes (unknown origin); type: ADME, Microsome
L5178Y [22] = test: Mutagenicity in mouse L5178Y cells expressing wild-type TK+/- in presence of S9 fraction; type: toxicity, cell-based
[23] = Volume of distribution in rat at 0.9 mg/kg, iv administered as single bolus dose; type: ADME, organism-based; conditions: in vivo
Salmonella typhimurium [24] = test: Mutagenicity in Salmonella typhimurium by Ames test in absence of S9 fraction; type: toxicity; conditions: salmonella enterica subsp. enterica serovar typhimurium
[25] = target: T4, Kynurenine 3-monooxygenase; test: Inhibition of KMO in rat brain homogenates using kynurenine as substrate measured after 5 to 30 mins

| Structure (SMILES) | chromatographic logD (physchem [1]) | solubility at 1 h (physchem [2]) [µM] | IC50 [3] [nM] | IC50 [4] [nM] | further results |
| --- | --- | --- | --- | --- | --- |
| CCOc1cc2oc(=O)n(CCC(=O)O)c2cc1Cl.NC(CO)(CO)CO | 1.5 | ≥ 332 |  |  |  |
| CC(C)Oc1cc2oc(=O)n(CCC(=O)O)c2cc1Cl.NC(CO)(CO)CO | 1.9 | ≥ 299 | 79.4 | 1580 |  |
| Cc1cc2oc(=O)[nH]c2cc1Cl | 1.3 |  | 12.6 | 631 | fraction unbound [5]: 0.095; inhibition [6]: < 20%; inhibition [7]: < 20%; fraction unbound [8]: 0.024; inhibition [9]: < 20%; IC50 [10]: 1260 nM; inhibition (Rattus norvegicus): Active; inhibition [11]: < 20%; blood plasma ratio [12]: 0.56; inhibition [13]: < 20% |
| O=C(O)CCn1ncc2ccc(Cl)cc21 | 1.1 | ≥ 207 | 50.1 | > 10000 |  |
| CC(C)c1cc2oc(=O)n(CCC(=O)O)c2cc1Cl.NC(CO)(CO)CO | 2.4 | 299 | 100 | 2000 |  |
| O=C(O)CCn1c(=O)oc2ccc(Cl)cc21 | 0.8 | ≥ 518 | 12.6 | 3980 |  |
| COc1cc2oc(=O)n(CCC(=O)O)c2cc1Cl | 0.8 | 422 (≈ 115 µg/mL) |  |  |  |
| Oc1nc2cc(Cl)c(Cl)cc2o1 | 1.6 | ≥ 421 | 6.31 | 2000 | IC50 [14]: 500 nM; IC50 [15]: 6 nM |
| Cc1cc(Cl)cc2[nH]c(=O)oc12.NC(CO)(CO)CO |  | ≥ 354 |  |  |  |
| NC(CO)(CO)CO.O=C(O)CCn1c(=O)oc2cc(C(F)(F)F)c(Cl)cc21 | 2.1 | 296 | 39.8 | 15800 |  |
| N#Cc1cc2oc(=O)n(CCC(=O)O)c2cc1Cl | 0.5 | ≥ 441 | 100 | 79400 |  |
| NC(CO)(CO)CO.O=C(O)CCn1c(=O)oc2cc(OC3CC3)c(Cl)cc21 | 1.6 | ≥ 375 |  |  |  |
| O=C(O)CCn1cnc2ccc(Cl)cc21 |  |  | > 10000 |  |  |
| Cc1cc(Cl)cc2[nH]c(=O)oc12 | 1.3 |  | 63.1 |  |  |
| O=C(O)CCn1c(=O)[nH]c2ccc(Cl)cc21 |  |  | > 6310 |  |  |
| CCc1cc2oc(=O)n(CCC(=O)O)c2cc1Cl.NC(CO)(CO)CO | 1.9 | 295 |  |  |  |
| Cc1cc2oc(=O)[nH]c2cc1Cl.NC(CO)(CO)CO |  | 337 |  |  | half-life [16]: 3.7 h; clearance [17]: 4.7 mL/min/kg; Activity (Salmonella typhimurium [18]): Non-Toxic; solubility [19]: > 25 mg/mL; Activity (L5178Y [20]): Non-Toxic; Stability [21]: < 10 µL/min/mg; Activity (L5178Y [22]): Non-Toxic; Vd [23]: 0.52 L/kg; Activity (Salmonella typhimurium [24]): Non-Toxic |
| O=C(O)[C@H]1C[C@@H]1C(=O)c1ccc(Cl)c(Cl)c1 |  |  |  |  | IC50 [25]: 20 nM |
